Laboratory results: patent publication US20230033911A1, “BIOACTIVE COMPOSITIONS AND METHODS OF USE THEREOF” (Ingenious Ingredients, LP, priority 2021, published 2023)

How the values were obtained:
Assay type in all cases: in vivo
Swiss Albino mice [1] = experiment: Force swim test, paraxanthine plus tyrosine study (Example 2); details: oral once a day for 28 days; for Duration of mobility/active swimming: 30 min force swim on 28th day, n=8
Method: (§1) Thirty-two 8-week-old male Swiss Albino mice were housed in an animal room at a constant temperature (22±3° C.) and humidity (30%-70%) under a 12:12 h light-dark cycle with standard laboratory diet (Purina 5L79, Rat and Mouse 18% protein; PMI Nutrition International, Brentwood, Mo., USA). Distilled water was provided ad libitum. All animal experiments were reviewed and approved by the Institutional Animal Ethical Committee (IAEC) of Radiant Research Services Pvt. Ltd (Bangalore, India). All research was conducted in accordance with the guidelines of the committee for the purpose of control and supervision of experiments on animals.
(§2) After one week of acclimation, the animals were randomly divided by body weight into four groups (n=8 per group in each test) for oral treatment once a day, at approximately same time each day (±1 hour), for 28 consecutive days: (1) vehicle control or (2) paraxanthine or (3) tyrosine or (4) tyrosine plus paraxanthine. The dose administered to the mice was calculated using US Food and Drug Administration for human equivalence doses (HED), assuming a human weight of 60 kg. The following HED was used in this study: 100 mg paraxanthine (ENFINITY®, Ingenious Ingredients, L.P Lewisville, Tex., USA; mouse dose: 20.5 mg/kg bw/day) or 500 mg tyrosine (mouse dose: 102.75 mg/kg bw/day), or 500 mg tyrosine (mouse dose: 102.75 mg/kg bw/day) plus 100 mg paraxanthine (ENFINITY®, Ingenious Ingredients, L.P Lewisville, Tex., USA; mouse dose: 20.5 mg/kg bw/day). 0.5% Carboxy Methyl Cellulose sodium was used as vehicle and the test item formulations were prepared daily. Dosing was conducted via oral gavage using disposable polypropylene syringes with sterilized stainless steel gavage tubes. Food intake was monitored daily while water intake was ad libitum.
During treatment period, training was accomplished on a swimming chamber at a moderate room temperature for 15 mins. […] The parameters measured were total time spent in active swimming (the total duration during which the animal swims throughout the experimental period).

Swiss Albino mice [2] = experiment: Forelimb grip strength test; details: oral once a day for 28 days; measured on day 0 and day 28, one hour after treatment
Method: as §1
After one week of acclimation, the animals were randomly divided by body weight into four groups (n=8 per group in each test) for oral treatment once a day, at approximately same time each day (±1 hour), for 28 consecutive days: (1) vehicle control or (2) paraxanthine or (3) tyrosine or (4) tyrosine plus paraxanthine. The dose administered to the mice was calculated using US Food and Drug Administration for human equivalence doses (HED), assuming a human weight of 60 kg. […] Food intake was monitored daily while water intake was ad libitum.
The forelimb grip strength was measured on day 0 and day 28 by using a stainless-steel grill to assess muscle strength (Orchid Scientific & Innovative India Pvt Ltd, India). Grip strength was measured one hour after treatment. […]

Swiss Albino mice [3] = experiment: Force swim test, paraxanthine plus taurine study (Example 3); details: 30 min force swim on 28th day; oral once a day for 28 days; n=8
Method: as §1, with “Twenty-four” for “Thirty-two”
as §2, with “into three” for “into four”, “(1) paraxanthine” for “(1) vehicle control”, “(2) taurine” for “(2) paraxanthine”, “(3) taurine” for “(3) tyrosine or (4) tyrosine”, “mg taurine” for “mg tyrosine”
During treatment period, training was accomplished on a swimming chamber at a moderate room temperature for 15 mins. The animals were adapted to this procedure daily 1 hr after dosing for 5 days in a week during the treatment period. On 28th day of respective treatment of all the animals were subjected to force swim test. Animals were forced to swim individually for 30 min in a glass jar of height 20 cm, diameter 10 cm, and filled with fresh water to a depth of 15 cm at room temperature. The parameter measured was total time spent in active swimming (the total duration during which the animal swims throughout the experimental period) and duration of immobility (the total time during which the animal is immobile).

Swiss Albino mice [4] = experiment: Cook's pole climbing test after scopolamine-induced amnesia; details: for Escape latency: Cook's pole climbing test, scopolamine i.p., n=8; for Escape latency, faster than control: relative to vehicle control
Method: Behavioral studies were conducted in mice to examine the learning and memory ability by using Cook's pole test.
as §1
as §2, with “7” for “28”
Mice were trained in such a way that the animal had to climb the pole (shock free zone) within 30 seconds to avoid a shock. The shock was preceded by a buzzer that lasted for 15 seconds. The animals were trained to climb the pole at the sound of the buzzer (conditioned avoidance response). At particular intervals, 20 trials were given for each animal and average of the shock avoidance and mistakes were recorded. Trained animals were assayed by conditioned avoidance responses.
Amnesia was induced by using the scopolamine injection. Scopolamine is an anti-cholinergic and is an attractive amnesic agent for discerning the action of candidate anti amnesic drugs. Scopolamine is a non-selective post synaptic muscarinic receptor blocker and can cause cognitive impairments in rodents and humans via decreasing the effectiveness of ACH in the CNS in animals and humans. Scopolamine can induce the significant deficits in cognitive performance on behavioral tests which makes it a valid pharmacological model for inducing cognitive deficits. In this study to evaluate the cognitive effect, the mice were injected with scopolamine intraperitoneally to induce memory deficits.

SMILES | Duration of mobility/active swimming (Swiss Albino mice [1]) [min] | Energy and mood (in words) (Swiss Albino mice [1]; force swim test on 28th day) | Forelimb grip strength (in words, FIG. 1) (Swiss Albino mice [2]) | Duration of immobility (Swiss Albino mice [3]) [min] | Duration of mobility/active swimming (Swiss Albino mice [3]) [min] | Escape latency (Swiss Albino mice [4]; oral once a day for 7 days) [s] | Effect on scopolamine-induced amnesia, memory and learning (in words) (Swiss Albino mice [4]; oral once a day for 7 days) | Escape latency, faster than control (Swiss Albino mice [4]) [%] | Escape latency, slower than paraxanthine (Swiss Albino mice [4]; relative to paraxanthine group) [%]
Cn1c(=O)[nH]c2ncn(C)c2c1=O [paraxanthine] | 8.63 ± 1.92 | improved energy and mood | improved strength over control | 21.38 ± 1.92 | 8.63 ± 1.92 | 16.38 ± 2.33 | reversal of amnesia induced by scopolamine and improved memory and learning | 46.3 | 
NCCS(=O)(=O)O [taurine] |  |  |  | 21.50 ± 2.20 | 8.50 ± 2.20 |  |  |  | 
N[C@@H](Cc1ccc(O)cc1)C(=O)O [tyrosine] | 8.88 ± 1.46 |  | improved strength at a lesser degree |  |  | 8.25 ± 1.04 |  | 30.6 | 29.3
